In paper PMC11359702, “Synthesis and Biochemical Evaluation of Ethanoanthracenes and Related Compounds: Antiproliferative and Pro-Apoptotic Effects in Chronic Lymphocytic Leukemia (CLL)” (Pharmaceuticals, 2024):
“And” between values parts separate entries of the source, which are not always exact repeats. Identical values can stand only once. Like-named read-outs stand apart in the source and are kept apart here.

Assays:
HG-3 cells [1] = experiment: alamarBlue cell viability assay; details: for viability at 10 µM / viability at 1 µM / IC50: HG-3, 24 h; for viability at 1 µM: read-out: cell viability, HG-3, 1 µM, 24 h, vehicle = 100%; for IC50: read-out: HG-3 IC50
PGA-1 cells [2] = experiment: alamarBlue cell viability assay; details: for viability at 10 µM: read-out: cell viability; for IC50: read-out: PGA-1 IC50
HG-3 cells [3] = experiment: LDH cytotoxicity assay (CytoTox 96); assay type: cell-based; details: 24 h
Excerpt: (§1) The lactate dehydrogenase (LDH) assay is used to assess the membrane integrity of cells as a function of the cytoplasmic LDH released. The loss of cell membrane integrity (due to cytotoxic insult) is detectable through LDH release into the cell growth medium. The assay is initiated via the reduction in cellular co-factor NAD^+ to NADH catalyzed via the LDH enzyme. Newly formed NADH catalyzes the acidic reduction in iodonitrotetrazolium chloride (INT) to the highly colored formazan (red) (mediated via the diaphorase enzyme). […] At the 10-µM treatment concentration, mild to moderate cytotoxicity (19–47%) was observed. […] Cytotoxicity remained low to mild at 1 µM (4–18%) with 23a displaying the lowest LDH release (4%).
(§2) Following the treatment of the HG-3 and PGA-1 cells at 10 µM for 24 hr, the amount of LDH released was determined using an LDH assay kit from Promega (G1780). Cell lysis solution = 100% cell lysis and LDH release). Data are presented as % cell death at a concentration of 10 µM. Cells were treated with ethanoanthracene compounds 20a, 20f, 23a and 25n (1 µM and 10 µM) for 24 h. Values are shown as the mean of three independent experiments.
(§3) The cytotoxicity of the selected compounds 20a, 20f, 23a and 25n was determined using the CytoTox 96 non-radioactive cytotoxicity assay (Promega Corporation; 2800 Woods Hollow Road, Madison, WI, USA). CLL cells HG-3 and PGA-1 were incubated for 24 h and then treated with the selected compounds 20a, 20f, 23a and 25n at 10-µM and 1-µM concentrations, following the protocol outlined above in the cell viability assay. After 24 h, the lysis solution (10×) (20 µL) was added, and the cells were incubated for a further 1 h to ensure complete cell death. Supernatant (50 µL) was removed from each well and transferred to a clean 96-well plate. “Substrate mix” (50 µL) was added, and the plate was stored in the dark at 20 °C for 30 min. “Stop solution” (50 µL) was added to each well, and the absorbance at 490 nm was recorded using a Dynatech MR5000 plate reader; the % cell death was determined relative to the control cell lysis solution.

PGA-1 cells [4] = experiment: LDH cytotoxicity assay (CytoTox 96); assay type: cell-based; details: PGA-1, 10 µM, 24 h
Excerpt: as §1, §2, §3

HG-3 cells [5] = experiment: Annexin V/PI apoptosis assay (FACS); assay type: cell-based, human
Experimental: (§4) The pro-apoptotic effects of selected nitrovinylethanoanthracene compounds 20a and 20f and anthracene chalcones 23a and 25n in HG-3 cells and PGA-1 cells was then investigated using FITC (fluorescein isothiocyanate), Annexin V/PI (propidium iodide) and FACS (fluorescence-activated cell sorting) analysis to characterize the mode of cellular death induced. Apoptosis was assessed as % total apoptosis (total of early (Q3) and late (Q2) apoptosis).
(§5) CLL cells PGA-1 and HG-3 (1 × 10^6 cells/mL) were treated at 37 °C with either the vehicle (1% (v/v) DMSO) or the ethanoanthracene compounds 20a, 20f, 23a and 25n (10 µM, 5 µM and 1 µM) for 48 h, following the protocol previously described. The cells were then harvested via centrifugation at 400× g in a temperature-controlled Sorvall centrifuge. The cells were rinsed with Ca^2+ Annexin-V-binding buffer (0.1 M HEPES, pH 7.4; 0.14 M NaCl; 25 mM CaCl2, 0.5 mL). The samples were resuspended in FITC Annexin V (diluted 1:33 in Ca^2+ Annexin V-binding buffer, 50 µL) and incubated for 10 min (on ice and protected from light). The samples were washed with Annexin-V-binding buffer and resuspended in a PI solution (0.5 µg/mL, 500 µL) and analyzed within 1 h using a BD Accuri C6 flow cytometer counting 10,000 cells using the FlowJo software Version 10 (FlowJo LLC, Ashland, OR, USA).

PGA-1 cells [6] = experiment: Annexin V/PI apoptosis assay (FACS); assay type: cell-based, human
Experimental: as §4, §5

K-562 = experiment: NCI-60 five-dose assay; assay type: cell-based, human; details: K-562
SR = experiment: NCI-60 five-dose assay; assay type: cell-based, human
[7] = system: HG-3 and PGA-1 cell lines; experiment: alamarBlue cell viability assay, mean of both CLL cell lines; assay type: cell-based, human; details: mean of HG-3 and PGA-1
MOLT-4 = experiment: NCI-60 five-dose assay; assay type: cell-based, human; details: MOLT-4
HL-60(TB) = experiment: NCI-60 five-dose assay; assay type: cell-based, human; details: HL-60(TB)
CCRF-CEM = experiment: NCI-60 five-dose assay; assay type: cell-based, human
leukemia cell panel = experiment: NCI-60 five-dose assay, leukemia cell panel mean; assay type: cell-based, human; details: mean across the six leukemia cell lines
melanoma cell lines = experiment: NCI-60 five-dose assay, melanoma cell lines; assay type: cell-based, human; details: range over melanoma cell lines
Experimental: (§6) A number of our most promising compounds identified through preliminary cell viability testing (23c, 23d, 23f, 23h, 23l, 23m, 23n, 23o, 24f, 24l, 25n and 26n) were selected for NCI drug screening in the 60-cell-line panel. The panel includes nine subcategories based on cancer tissue types, which include leukemia, ovarian, central nervous system, breast, lung, prostate, skin, renal and colon cancer. The compounds were initially assessed in a one-dose assay at a fixed treatment concentration of 10 µM. The compounds selected for further investigation were progressed to a five-dose assay across the concentration ranges of 0.01, 0.1, 1, 10 and 100 µM [72]. The endpoints assessed in the screening protocol were GI50, TGI and LC50 [72].

[8] = HPLC stability study in phosphate buffers; assay type: physicochemical
Experimental: A preliminary stability study was carried out on selected chalcones, maleic anhydride and maleimide adducts at acidic, neutral and basic conditions (pH 4, 7.4 and 9) using HPLC to determine suitability for further preclinical investigations. […] A possible degradation route for the maleimide 23n could be through the hydrolysis of the cyclic imide of the maleimide ring, leading to the resultant amic acid product.
All samples were analyzed using acetonitrile–water (80:20%, 70:30%, 60:40% isocratic) as the mobile phase over 10 min and a flow rate of 1 mL/min. Stock solutions were prepared by dissolving 5 mg of compounds in a mobile phase ([(acetonitrile (80%): water (20%)], 10 mL). Anhydride 22h was not detected at its retention time of 5.2 min at pH 9.0. The data presented represent the results of single experiments.
The HPLC stability studies for compounds 21a, 21i, 22h, 23a, 23g, 23n, 24a, 24h, 26a and 26n were performed using a Symmetry® column (C18, 5 µm, 4.6 × 150 mm), a Waters 2487 Dual Wavelength Absorbance detector, and an HPLC pump: Waters 1525 binary and Autosampler; Waters 717 plus (Waters Corporation, Milford, MA, USA), mobile phase [(acetonitrile (80%) and water (20%)] with a typical run time of 10 min and a flow rate of 1 mL/min with detection at 254 nm. The selected compounds 21a, 21i, 22h, 23a, 23g, 23n, 24a, 24h, 26a and 26n (5 mg) in the mobile phase (10 mL) provided the stock solution for the analysis. The phosphate buffers were prepared at pH values of 4, 7.4 and 9, as described in the British Pharmacopoeia monograph 2019. The stock solution (30 µL) was added to the appropriate buffer (1 mL) and retained at 37 °C. Samples were then analyzed over the following 24-h period at selected time intervals (t = 0 min, 5 min, 30 min, 60 min, 90 min, 120 min and 24 h).

HG-3 cells [9] = details: 10 µM
[10] = system: NCI 60 cancer cell line panel; experiment: NCI-60 five-dose assay, full-panel means; assay type: cell-based
Experimental: as §6

RPMI-8226 = experiment: NCI-60 five-dose assay; assay type: cell-based, human; details: RPMI-8226
[11] = Homo sapiens, read-out: cell viability, HG-3, 10 µM, 24 h, vehicle = 100%

COC(=O)C1=C(C(=O)OC)C2(C=CC(=O)c3ccccc3)c3ccccc3C1c1ccccc12 [Compound 27, Dimethyl (E)-9-(3-oxo-3-phenylprop-1-en-1-yl)-9,10-dihydro-9,10-ethenoanthracene-11,12-dicarboxylate]
melting point: > 250 °C
viability at 10 µM (HG-3 cells [1]; [11]): 50%
viability at 10 µM (PGA-1 cells [2]; Homo sapiens, 24 h): 58%

O=C(/C=C/c1c2ccccc2cc2ccccc12)c1cccs1 [Compound 21q, (E)-3-(anthracen-9-yl)-1-(thiophen-2-yl)prop-2-en-1-one]
melting point: 157 to 158 °C

O=C(/C=C/c1c2ccccc2cc2ccccc12)c1ccccc1 [Compound 21f, (E)-3-(anthracen-9-yl)-1-phenylprop-2-en-1-one]
melting point: 128 to 130 °C

Cc1ccc(C(=O)/C=C/c2c3ccccc3cc3ccccc23)cc1 [Compound 21j, (E)-3-(anthracen-9-yl)-1-(p-tolyl)prop-2-en-1-one]
melting point: 98 to 103 °C

O=C(/C=C/c1c2ccccc2cc2ccccc12)c1ccncc1 [Compound 21m, (E)-3-(anthracen-9-yl)-1-(pyridin-4-yl)prop-2-en-1-one]
melting point: 170 to 173 °C
viability at 1 µM (HG-3 cells [1]; Homo sapiens): 50 to 61%
viability at 10 µM (HG-3 cells [1]; [11]): 37 to 54%
viability at 10 µM (PGA-1 cells [2]; Homo sapiens, 24 h): 43%

CCc1ccc(C(=O)/C=C/c2c3ccccc3cc3ccccc23)cc1 [Compound 21c, (E)-3-(anthracen-9-yl)-1-(4-ethylphenyl)prop-2-en-1-one]
melting point: 128 to 129 °C

O=C1C2C3c4ccccc4C(C=C[N+](=O)[O-])(c4ccccc43)C2C(=O)N1CCCCCCN1C(=O)C2C3c4ccccc4C(C=C[N+](=O)[O-])(c4ccccc43)C2C1=O (centres unmarked) [Compound 20f]
potency relative to fludarabine control (HG-3 cells [1]; HG-3, IC50 ratio): 165 fold
IC50 (HG-3 cells [1]; Homo sapiens): 170 nM
viability at 10 µM (HG-3 cells [1]; Homo sapiens, read-out: cell viability): 14 to 43%
IC50 (PGA-1 cells [2]; Homo sapiens, 24 h): 350 nM
viability at 10 µM (PGA-1 cells [2]; Homo sapiens, 24 h): 17%
potency relative to fludarabine control (PGA-1 cells [2]; PGA-1, IC50 ratio): 91 fold
LDH release (cytotoxicity, % cell death) (HG-3 cells [3]; HG-3, 1 µM): 12%
LDH release (cytotoxicity, % cell death) (HG-3 cells [3]; HG-3, 10 µM, lysis solution = 100%): 19%
LDH release (cytotoxicity, % cell death) (PGA-1 cells [4]): 19%
total apoptosis (early Q3 + late Q2) (HG-3 cells [5]; HG-3, 1 µM): 82%
total apoptosis (early Q3 + late Q2) (HG-3 cells [5]; HG-3, 10 µM): 82–95% and 82%
total apoptosis (early Q3 + late Q2) (PGA-1 cells [6]; PGA-1, 1 µM): 76%
total apoptosis (early Q3 + late Q2) (PGA-1 cells [6]; PGA-1, 10 µM): 87–97% and 88%

O=C(/C=C/C12c3ccccc3C(c3ccccc31)C1C(=O)NC(=O)C12)c1ccccn1 (centres unmarked) [Compound 23n]
IC50 (HG-3 cells [1]): 2390 nM
GI50 (K-562): 1370 nM
GI50 (SR): 780 nM
IC50 (PGA-1 cells [2]; PGA-1, 24 h): 1480 nM
IC50 [7]: 1940 nM
GI50 (MOLT-4): 2110 nM
GI50 (HL-60(TB)): 1020 nM
GI50 (CCRF-CEM): 1440 nM
GI50 (leukemia cell panel): 1320 nM
GI50 (melanoma cell lines): 1120 to 2140 nM
Half-life pH 4 ([8]; pH 4 buffer, 37 °C): 19 h
% remaining 24 h pH 4 ([8]; pH 4 buffer, 37 °C, 24 h, HPLC): 39% and 38.86%
Half-life pH 7.4 ([8]; pH 7.4 buffer, 37 °C): > 24 h
% remaining 24 h pH 7.4 ([8]; pH 7.4 buffer, 37 °C, 24 h, HPLC): 70% and 70.29%
decrease in compound concentration over 24 h ([8]; pH 9.0): 11%
Half-life pH 9 ([8]; pH 9 buffer, 37 °C): > 24 h
% remaining 24 h pH 9 ([8]; pH 9 buffer, 37 °C, 24 h, HPLC): 89% and 88.59%
cell viability (HG-3 cells [9]): 2%
CC50 [10]: 14800 nM
Mean TGI (MID TGI, total growth inhibition) ([10]; mean over NCI 60 cell line panel): 4570 nM
GI50 ([10]; mean over NCI 60 cell line panel, read-out: Mean GI50 (MID GI50, full-panel mean-graph mid-point)): 1660 nM
GI50 (RPMI-8226): 1220 nM

O=C(/C=C/c1c2ccccc2cc2ccccc12)c1ccc2ccccc2c1 [Compound 21p, (E)-3-(anthracen-9-yl)-1-(naphthalen-2-yl)prop-2-en-1-one]
melting point: 160 to 164 °C
viability at 10 µM (PGA-1 cells [2]; Homo sapiens, 24 h): 50%

COc1cc(C(=O)/C=C/c2c3ccccc3cc3ccccc23)cc(OC)c1OC [Compound 21k, (E)-3-(Anthracen-9-yl)-1-(3,4,5-trimethoxyphenyl)prop-2-en-1-one]
melting point: 160 to 164 °C
viability at 1 µM (HG-3 cells [1]; Homo sapiens): 50 to 61%
viability at 10 µM (HG-3 cells [1]; [11]): 37 to 54%
viability at 10 µM (PGA-1 cells [2]; Homo sapiens, 24 h): 43%

O=C(/C=C/c1c2ccccc2cc2ccccc12)c1ccc(I)cc1 [Compound 21g, (E)-3-(anthracen-9-yl)-1-(4-iodophenyl)prop-2-en-1-one]
melting point: 167 to 173 °C
